Data reported in PubChem BioAssay (NCI).
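Cultured in 96-well plates, cells were exposed to test compound for 48 hours across five concentrations. Here, GI50 denotes the concentration required for 50% inhibition of growth. TGI: concentration producing complete growth inhibition.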

What was measured:
Assay in all cases: growth of human tumour cells (NCI), 48 h; in the data active means GI50 below about 0.43 µM; inactive means the rest
SNB-19 CNS = tested on: SNB-19 CNS
MDA-MB-435 = tested on: MDA-MB-435
HCC-2998 colon = tested on: HCC-2998 colon
HOP-62 NSCLC = tested on: HOP-62 NSCLC
HOP-92 NSCLC = tested on: HOP-92 NSCLC
MOLT-4 leukemia = tested on: MOLT-4 leukemia
HCT-15 colon = tested on: HCT-15 colon
TK-10 renal = tested on: TK-10 renal
A549 NSCLC = tested on: A549 NSCLC
SN12C renal = tested on: SN12C renal
KM12 colon = tested on: KM12 colon
HL-60(TB) leukemia = tested on: HL-60(TB) leukemia
OVCAR-3 ovarian = tested on: OVCAR-3 ovarian
CCRF-CEM leukemia = tested on: CCRF-CEM leukemia
A498 renal = tested on: A498 renal
IGROV1 ovarian = tested on: IGROV1 ovarian
PC-3 prostate = tested on: PC-3 prostate
SK-MEL-5 melanoma = tested on: SK-MEL-5 melanoma
SR leukemia = tested on: SR leukemia
SF-295 CNS = tested on: SF-295 CNS
UACC-62 melanoma = tested on: UACC-62 melanoma
MDA-MB-468 breast = tested on: MDA-MB-468 breast
HS 578T breast = tested on: HS 578T breast
SK-OV-3 ovarian = tested on: SK-OV-3 ovarian
NCI-H226 lung = tested on: NCI-H226 lung
RPMI-8226 leukemia = tested on: RPMI-8226 leukemia
RXF 393 renal = tested on: RXF 393 renal
UO-31 renal = tested on: UO-31 renal
UACC-257 melanoma = tested on: UACC-257 melanoma
SK-MEL-2 melanoma = tested on: SK-MEL-2 melanoma

CC/C(=C(\c1ccc(O)cc1)c1ccc(OCCN(C)C(=O)COCCNC(=O)Cc2ccc3c(c2)CN([C@@H]2CCC(=O)NC2=O)C3=O)cc1)c1ccccc1
0.266 µM: TGI (MDA-MB-468 breast)
19.1 µM: TGI (HOP-62 NSCLC)
inactive: GI50 (SNB-19 CNS) 1.83 µM | GI50 (MDA-MB-435) 17.8 µM | GI50 (HCC-2998 colon) 1.7 µM | GI50 (HOP-62 NSCLC) 2.28 µM | GI50 (HCT-15 colon) > 88.1 µM | GI50 (TK-10 renal) > 100 µM | GI50 (A549 NSCLC) 46.2 µM | GI50 (SN12C renal) 2.27 µM | GI50 (KM12 colon) 8.5 µM | GI50 (OVCAR-3 ovarian) 15.2 µM | GI50 (CCRF-CEM leukemia) 0.995 µM | GI50 (A498 renal) 38.6 µM | GI50 (IGROV1 ovarian) 0.433 µM | GI50 (PC-3 prostate) 0.703 µM | GI50 (SK-MEL-5 melanoma) 6.78 µM | GI50 (SR leukemia) 13.5 µM | GI50 (SF-295 CNS) > 100 µM | GI50 (UACC-62 melanoma) 54.2 µM | GI50 (HS 578T breast) 0.672 µM | GI50 (SK-OV-3 ovarian) 10.7 µM | GI50 (NCI-H226 lung) 2.35 µM | GI50 (RPMI-8226 leukemia) 5.07 µM | GI50 (RXF 393 renal) 4.19 µM | GI50 (UO-31 renal) > 100 µM | GI50 (UACC-257 melanoma) > 100 µM | GI50 (SK-MEL-2 melanoma) 6.14 µM
72.8 µM: TGI (RXF 393 renal)
> 93 µM: TGI (SN12C renal)
> 82.3 µM: TGI (HCC-2998 colon)
11.8 µM: TGI (HS 578T breast)
1.1 µM: TGI (MOLT-4 leukemia)
> 26.7 µM: TGI (NCI-H226 lung)
0.659 µM: TGI (HL-60(TB) leukemia)
> 91.8 µM: TGI (SK-MEL-2 melanoma)
3.05 µM: TGI (HOP-92 NSCLC)
> 100 µM: TGI (SNB-19 CNS) | TGI (MDA-MB-435) | TGI (HCT-15 colon) | TGI (TK-10 renal) | TGI (A549 NSCLC) | TGI (KM12 colon) | TGI (OVCAR-3 ovarian) | TGI (A498 renal) | TGI (IGROV1 ovarian) | TGI (PC-3 prostate) | TGI (SF-295 CNS) | TGI (UACC-62 melanoma) | TGI (SK-OV-3 ovarian) | TGI (RPMI-8226 leukemia) | TGI (UO-31 renal) | TGI (UACC-257 melanoma)
active: GI50 (HOP-92 NSCLC) 0.177 µM | GI50 (MOLT-4 leukemia) 0.0517 µM | GI50 (HL-60(TB) leukemia) 0.0309 µM | GI50 (MDA-MB-468 breast) 0.0374 µM
> 74 µM: TGI (SR leukemia)
73.9 µM: TGI (SK-MEL-5 melanoma)
